The text below walks through data of US8809545B2, “Aryl pyridine as aldosterone synthase inhibitors” (Novartis AG, priority 2009, dated 2014).

Structures are written as SMILES.

One assay has as its target T1, aldosterone synthase (Homo sapiens, UniProt P19099).
T1 construct: host or cells: NCI-H295R
T1 sequence (P19099 25-503): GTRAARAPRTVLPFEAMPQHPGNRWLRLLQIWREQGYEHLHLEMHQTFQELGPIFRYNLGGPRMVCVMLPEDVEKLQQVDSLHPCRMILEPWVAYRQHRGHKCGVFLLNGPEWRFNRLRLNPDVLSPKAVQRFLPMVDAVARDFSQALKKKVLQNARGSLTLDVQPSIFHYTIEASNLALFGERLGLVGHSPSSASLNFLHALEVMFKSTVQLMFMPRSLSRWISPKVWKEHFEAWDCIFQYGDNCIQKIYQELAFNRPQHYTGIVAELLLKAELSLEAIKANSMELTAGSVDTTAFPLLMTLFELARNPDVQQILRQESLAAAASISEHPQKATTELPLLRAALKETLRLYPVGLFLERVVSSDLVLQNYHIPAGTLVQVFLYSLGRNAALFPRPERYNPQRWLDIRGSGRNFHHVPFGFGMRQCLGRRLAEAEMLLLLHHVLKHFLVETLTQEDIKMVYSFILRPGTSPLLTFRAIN
Briefly: Aldosterone cell secretion in Ang II-stimulated NCI-H295R cells (SPA with anti-aldosterone antibody). The class given is cell-based. The following applies: human adrenocortical carcinoma NCI-H295R cells, 1 μM Ang II, 24 h. The source says: In particular, the aldosterone synthase inhibitory activities in vitro can be determined by the following assay.
Human adrenocortical carcinoma NCI-H295R cell line was obtained from American Type Culture Collection (Manassas, Va.). Insulin/transferrin/selenium (ITS)-A supplement (100×), DMEM/F-12, antibiotic/antimycotic (100×), and fetal bovine serum (FBS) were purchased from Invitrogen (Carlsbad, Calif.). Anti-mouse PVT scintillation proximity assay (SPA) beads and NBS 96-well plates were obtained from GE Health Sciences (Piscataway, N.J.) and Corning (Acton, Mass.), respectively. Solid black 96-well flat bottom plates were purchased from Costar (Corning, N.Y.). Aldosterone and angiotensin (Ang II) were purchased from Sigma (St. Louis, Mo.). D-[1,2,6,7-^3H(N)]aldosterone was acquired from PerkinElmer (Boston, Mass.). Nu-serum was a product of BD Biosciences (Franklin Lakes, N.J.).
On the following day, cells are rinsed with 100 μL of phosphate-buffered saline (PBS) and incubated with 100 μL of treatment medium containing 1 μM Ang II and a compound at different concentrations in quadruplicate wells at 37° C. for 24 h. At the end of incubation, 50 μL of medium is withdrawn from each well for measurement of aldosterone production by an SPA using mouse anti-aldosterone monoclonal antibodies.
Measurement of aldosterone activity can also be performed using a 96-well plate format. […] Anti-mouse PVT SPA beads (50 μL) are then added to each well and incubated overnight at room temperature prior to counting in a Microbeta plate counter. The amount of aldosterone in each sample is calculated by comparing with a standard curve generated using known quantities of the hormone.
(§1) Inhibition of the release of certain steroids can be used as a measure of the respective enzyme inhibition by the added test compounds. The dose-dependent inhibition of enzymatic activity by a compound is calculated by means of an inhibition plot which is characterized by an IC50.
The inhibition plot is calculated by fitting a 4-parameter logistic function to the raw data points using the least squares method. The equation of the 4-parameter logistic function is calculated as follows: Y=(d−a)/((1+(x/c)b))+a, where: a=minimum data level, b=gradient, I […], d=maximum data level, x=inhibitor concentration.

Assay [1] addresses T2, CYP11B1 (steroid 11 β-hydroxylase) (Homo sapiens, UniProt P15538).
T2 construct: the NCI-H295R cells have CYP11B1 (steroid 11 β-hydroxylase); host or cells: NCI-H295R
T2 sequence (P15538 25-503): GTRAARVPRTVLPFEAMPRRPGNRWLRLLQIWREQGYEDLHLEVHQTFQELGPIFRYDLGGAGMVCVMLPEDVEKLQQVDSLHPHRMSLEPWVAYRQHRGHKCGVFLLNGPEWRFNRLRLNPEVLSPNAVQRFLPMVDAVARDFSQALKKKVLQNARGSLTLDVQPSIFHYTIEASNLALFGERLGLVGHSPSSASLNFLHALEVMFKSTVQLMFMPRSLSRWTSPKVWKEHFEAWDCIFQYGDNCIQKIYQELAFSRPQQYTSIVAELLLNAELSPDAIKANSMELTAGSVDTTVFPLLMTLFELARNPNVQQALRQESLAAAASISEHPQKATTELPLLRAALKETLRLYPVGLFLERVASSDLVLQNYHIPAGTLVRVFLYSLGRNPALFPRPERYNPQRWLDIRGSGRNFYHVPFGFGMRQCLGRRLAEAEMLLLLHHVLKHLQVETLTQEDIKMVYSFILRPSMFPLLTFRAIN
Briefly: Cortisol cell secretion in NCI-H295R cells (in vitro inhibitory activity for CYP11B1). The following applies: compound at 1 μM. The class given is cell-based.
Description: The in vitro inhibitory activities for CYP11B1 can be determined by the following assay.
The cell line NCI-H295R was originally isolated from an adrenocortical carcinoma and has been characterized in the literature through the stimulable secretion of steroid hormones and the presence of the enzymes essential for steroidogenesis. Thus, the NCI-H295R cells have CYP11B1 (steroid 11 β-hydroxylase). The cells show the physiological property of zonally undifferentiated human fetal adrenocortical cells which, however, have the capacity to produce the steroid hormones which are formed in the three, phenotypically distinguishable zones in the adult adrenal cortex.
The NCI-H295R cells (American Type Culture Collection, ATCC, Rockville, Md., USA) are grown in Dulbeoco's Modified Eagle'Ham F-12 Medium (DME/F12), which has been supplemented with Ulroser SF Serum (Soprachem, Cergy-Saint-Christophe, France), insulin, transferrin, selenite (I-T-S, Becton Dickinson Biosiences, Franklin lakes, N.J., USA) and antibiotics in 75 cm^2 cell culture vessels at 37° C. and in a 95% air-5% carbon dioxide atmosphere. The cells are subsequently transferred for colony formation into a 24-well incubation vessel. They are cultivated there in DME/F12 medium, which is now supplemented with 0.1% bovine serum instead of Ultroser SF for 24 hours. The experiment is initiated by cultivating the cells in DME/F12 medium which is supplemented with 0.1% bovine serum albumin and test compound, in the presence or absence of cell stimulants, for 72 hours. The test substance is added in a concentration range from 0.2 nanomolar to […]. Cell stimulants which can be used are angiotensin II ([…] or 100 nanomolar), potassium ions (16 millimolar), forskolin (10 micromolar) or a combination of two stimulants.
The excretion of aldosterone, cortisol, corticosterone and estradiol/estrone into the culture medium can be detected and quantified by commercially available, specific monoclonal antibodies in radioimmunoassays in accordance with the manufacturer's instructions.
as §1
The inhibition activity of CYP11B1 production can also be expressed in percentage inhibition (% inhibition) at a given concentration (e.g. % inhibition at 1 μM), which is the cortisol level when cell is treated with the given concentration of a compound of the invention (e.g. concentration of 1 μM) versus the cortisol excretion when cell is free of the compound of the invention. % inhibition cortisol production=[(Y′−X′)/Y′]×100 wherein X′ is the level of cortisol when the cell is treated with a compound of Formula I; and Y′ is the level of cortisol when the cell is free of compound of Formula I.

As a reminder, the IC50 is the concentration at which inhibition is half-maximal. Read a high IC50 as weaker potency in that assay. For orientation: inhibition means the relative decrease from the control value, in per cent. Regarding `CCCC(NS(=O)(=O)CC)c1cncc(-c2ccc(C#N)c(Cl)c2)c1` (racemic) [N-(1-(5-(3-chloro-4-cyanophenyl)pyridin-3-yl)butyl)ethanesulfonamide: Racemate, N-(1-(5-(3-chloro-4-cyanophenyl)pyridin-3-yl)butyl)ethanesulfonamide], at aldosterone synthase, the IC50 is 132 nM. Further, the inhibition at 1 µM in assay [1] (NCI-H295R) came to 25%.

Take `CCCC(NS(=O)(=O)CC)c1cncc(-c2ccc(C#N)c(Cl)c2)c1` (single isomer, unassigned) [N-(1-(5-(3-chloro-4-cyanophenyl)pyridin-3-yl)butyl)ethanesulfonamide]: the IC50 on aldosterone synthase was determined as 89 nM. Besides, the inhibition at 1 µM in assay [1] (NCI-H295R) was 26%.

For the molecule `CCS(=O)(=O)NC(C)c1cncc(-c2ccc(C#N)c(Cl)c2)c1` (single isomer, unassigned) [N-(1-(5-(3-chloro-4-cyanophenyl)pyridin-3-yl)ethyl)ethanesul] [N-(1-(5-(3-chloro-4-cyanophenyl)pyridin-3-yl)ethyl)ethanesulfonamide], in assay [1], the “Cortisol cell secretion (% inhibition @ 1 μM)” value is 50%.

Regarding `CCS(=O)(=O)NC(C)c1cncc(-c2ccc(C#N)c(Cl)c2)c1` (single isomer, unassigned) [N-(1-(5-(3-chloro-4-cyanophenyl)pyridin-3-yl)ethyl)ethanesulfonamide], the IC50 at aldosterone synthase (Enantiomer 1) worked out at 49 nM; on aldosterone synthase (Enantiomer 2) it was 74 nM. In assay [1] (NCI-H295R), the inhibition at 1 µM amounted to 53%.

Consider `CCS(=O)(=O)NC(C)c1cncc(-c2ccc(C#N)c(OC)c2)c1` (single isomer, unassigned) [N-(1-(5-(4-cyano-3-methoxyphenyl)pyridin-3-yl)ethyl)ethanesu] [N-(1-(5-(4-cyano-3-methoxyphenyl)pyridin-3-yl)ethyl)ethanesulfonamide], for which, in assay [1], the “Cortisol cell secretion (% inhibition @ 1 μM)” value was found to be 27%.

As for `CCS(=O)(=O)NC(C)c1cncc(-c2ccc(C#N)c(OC)c2)c1` (single isomer, unassigned) [N-(1-(5-(4-cyano-3-methoxyphenyl)pyridin-3-yl)ethyl)ethanesulfonamide], the values for the IC50 against aldosterone synthase (Enantiomer 1) and at aldosterone synthase (Enantiomer 2) were 64 nM and 140 nM, respectively. For the same molecule, the inhibition at 1 µM in assay [1] (NCI-H295R) worked out at 38%.

As to `CCS(=O)(=O)NC(c1cncc(-c2ccc(C#N)c(OC)c2)c1)C1CC1` (single isomer, unassigned) [N-(5-(4-cyano-3-methoxyphenyl)pyridin-3-yl)(cyclopropyl)methyl)ethanesulfonamide], the IC50 was found to be 111 nM on aldosterone synthase (Enantiomer 1) and 41 nM on aldosterone synthase (Enantiomer 2). In assay [1] (NCI-H295R), the inhibition at 1 µM was determined as 25%.

As to `CCS(=O)(=O)NC(c1cncc(-c2ccc(C#N)c(OC)c2)c1)C1CC1` (single isomer, unassigned) [N-((5-(4-cyano-3-methoxyphenyl)pyridin-3-yl)(cyclopropyl)met] [N-(5-(4-cyano-3-methoxyphenyl)pyridin-3-yl)(cyclopropyl)methyl)ethanesulfonamide], the “Cortisol cell secretion (% inhibition @ 1 μM)” value in assay [1] is reported as 44%.

`N#Cc1ccc(-c2cncc(CN3CCCS3(=O)=O)c2)cc1Cl` [2-Chloro-4-[5-(1,1-dioxo-isothiazolidin-2-ylmethyl)-pyridin-3-yl]-benzonitrile]: the midpoint of inhibition on aldosterone synthase, the IC50, lay at 12 nM. Further, in assay [1] (NCI-H295R), the inhibition at 1 µM was determined as 64%.

`CCS(=O)(=O)N[C@@H](c1cncc(-c2ccc(C#N)c(Cl)c2)c1)C1CC1` [(R)-N-((5-(3-chloro-4-cyanophenyl)pyridin-3-yl)(cyclopropyl)methyl)ethanesulfonamide] displayed a half-maximal inhibitory concentration (IC50) against aldosterone synthase of 56 nM. Moreover, the inhibition at 1 µM in assay [1] (NCI-H295R) stood at 29%.

For the molecule `CCS(=O)(=O)N[C@H](c1cncc(-c2ccc(C#N)c(Cl)c2)c1)C1CC1` [(S)-N-((5-(3-chloro-4-cyanophenyl)pyridin-3-yl)(cyclopropyl)methyl)ethanesulfonamide], the IC50 against aldosterone synthase was found to be 24 nM. The inhibition at 1 µM in assay [1] (NCI-H295R) turned out to be 38%.

On to `CCS(=O)(=O)NCc1cncc(-c2cc3ccc(Cl)nc3n2C)c1` [Ethanesulfonic acid [5-(6-chloro-1-methyl-1H-pyrrolo[2,3-b]pyridin-2-yl)-pyridin-3-ylmethyl]-amide], for which the IC50 against aldosterone synthase worked out at 8 nM. Besides, the inhibition at 1 µM in assay [1] was determined as 40%.
